Measurements: US5607850A, “Enzyme from microbial source: phthalyl amidase” (Eli Lilly and Company, priority 1995, dated 1997)
Where two headings read alike, the source gives them in different places. Values belong to the compound of their own block, whether it stands above or below them.

Tests used:
phthalyl amidase [1] = molecular target: T1, phthalyl amidase (Xanthobacter agilis, UniProt P0C2Y0); test: Chiral and additional substrate selectivity of phthalyl amidase (Table 13); type: biochemical; details: 30° C.; for Relative Activity: Table 13
T1 sequence (P0C2Y0 2-453): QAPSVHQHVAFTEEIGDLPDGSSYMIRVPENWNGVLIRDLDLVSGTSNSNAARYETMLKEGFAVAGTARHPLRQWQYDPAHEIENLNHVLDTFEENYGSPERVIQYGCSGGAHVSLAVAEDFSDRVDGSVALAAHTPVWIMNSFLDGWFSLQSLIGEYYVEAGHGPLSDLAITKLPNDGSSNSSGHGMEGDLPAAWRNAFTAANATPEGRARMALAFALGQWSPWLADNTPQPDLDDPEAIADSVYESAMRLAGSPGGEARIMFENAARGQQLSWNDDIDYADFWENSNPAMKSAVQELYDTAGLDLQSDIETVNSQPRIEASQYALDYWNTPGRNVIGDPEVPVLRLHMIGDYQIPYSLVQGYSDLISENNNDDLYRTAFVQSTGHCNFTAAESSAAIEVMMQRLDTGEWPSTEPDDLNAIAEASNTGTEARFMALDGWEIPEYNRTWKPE
Description: Several additional substrates were tested in a total volume of 1 ml. […] Reactions were stopped by the addition of methanol, and phthalic acid formation was monitored by HPLC.

phthalyl amidase [2] = molecular target: T1, phthalyl amidase; test: Substrate specificity of phthalyl amidase (Tables 9-11); type: biochemical; details: Table 9, beta-lactams; 30° C., pH 8.0
Description: the activity of phthalyl amidase against 25 compounds was determined. The compounds were divided into beta-lactams (Table 9), phthalyl amides (Table 10), and aromatic ring substituted amides (Table 11). Each reaction mixture (1 ml total volume) contained 2.5 μmol of compound and 0.3 units of enzyme (based on the chromogenic substrate) of the preparative scale purified enzyme, in 50 mM phosphate buffer, pH 8.0. The reactions were conducted at 30° C. Samples of the reaction mixture were taken at various times, and methanol (equal value) was added to stop the reaction. The samples were examined by HPLC to determine the extent of substrate hydrolysis. The amount of compound hydrolyzed was calculated from a standard curve of the test compound. All substrates were stable in buffer at 30° C. and pH 8.0 in the absence of enzyme for 24 hours.

phthalyl amidase [3] = molecular target: T1, phthalyl amidase; test: Kinetic parameters for phthalyl amidase; type: biochemical; details: Table 12; 32° C., pH 8.2
Description: The kinetic parameters of the enzyme were determined for several representative substrates. Compounds II, XVII, and XVIII were tested using 0.9 μg/ml of enzyme. Compounds III and XI were tested using 5.14 μg/ml of enzyme. Substrate concentrations were between 0 and 25 mM and reaction time was between 2 and 20 minutes, depending on the substrate used. All reactions were run at 32° C. and at pH 8.2. Km is the Michaelis constant for enzyme kinetics, Vmax is the maximal rate of reaction calculated by the Michaelis-Menten equation, and Kcat is the catalytic constant for an enzyme reaction.

phthalyl amidase [4] = molecular target: T1, phthalyl amidase; test: Preparative scale enzymatic hydrolysis to carbacephem nucleus; type: biochemical; details: 510 minutes, 30° C., pH 8.0, 80 units enzyme
Description: Thus, either compound XXXIII or III can be used to prepare the carbacephem nucleus (XXXIV). Substrate (5 grams) was added to 20 ml of deionized water and the pH of the solution was adjusted to 8.0 with concentrated ammonium hydroxide. Phthalyl amidase, 80 units as determined using the chromogenic substrate (II), was added to start the reaction. Temperature was maintained at 30° C. and the pH maintained at 8.0 by adding 2 N ammonium hydroxide. […] The pH of the reaction was lowered to 5.0 thereby precipitating the carbacephem nucleus. Isolated yields of the nucleus were between 65% and 77%. [drawing 26]

[5] = Stability of phthalyl amidase: effect of ionic strength and pH; type: physicochemical; details: 200 mM salt added to 20 mM buffer
Description: The stability of phthalyl amidase at pH values ranging from 6-9 was determined as described in Example 5 at 30° C. in both 20 and 200 mM potassium phosphate buffer. […] In 200 mM buffer, the enzyme retained at least 80% of its activity for 100 hours irrespective of the pH of the incubating medium.

phthalyl amidase [6] = molecular target: T1, phthalyl amidase; test: Influence of effectors and organic solvents on phthalyl amidase activity; type: biochemical
Description: A typical reaction mixture consisted of 1 ml total volume and contained 0.1 mM III, 0.1 μM phthalyl amidase in 50 mM potassium phosphate buffer (pH 5.5-9.0) at 32° C. for 20 minutes. The reactions were stopped by the addition of 1 ml methanol. After removal of precipitate by centrifugation, an aliquot of the supernatant fraction (typically 30 μl) was monitored for the beta-lactam nucleus and phthalic acid by HPLC using a Zorbax C8 column (0.46×15 cm; MacMod Analytical Inc., Chadds Ford, Pa.). The two reaction products were eluted by a mobile phase constructed as continuous mixed gradients from (a) 1% ACN (acetonitrile)/0.2% TFA (trifluoroacetic acid) and (b) 80% ACN/0.2% TFA as follows: 1) 0% (b), 3min; 2) 0-50% (b), 0.5 min; 3) 50-100% (b), 3 min; 4) 100% (b), 2.5 min; 5) 100-1% (b), 0.1 min; and 6) 0% (b), 5 min.
The effect of various agents on the enzymatic activity of phthalyl amidase was determined using standard conditions (see Example 5). All agents were tested at 1 mM final concentration unless otherwise indicated.

substrate preference (phthalyl amidase [1]): twice that of compound III
Relative Activity (phthalyl amidase [1]; 2 minutes): 200
SMILES: O=C(O)c1ccccc1C(=O)Nc1ccccc1 [Compound XXXI]

substrate preference (phthalyl amidase [1]): poor substrates for the enzyme
substrate preference (phthalyl amidase [1]; listed as L isomer): extremely poor substrate
Relative Activity (phthalyl amidase [1]; run for a longer time period): 1.3
SMILES: O=C(O)c1ccccc1C(=O)N[C@H](C(=O)O)c1ccccc1 [Compound XXX, N-phthalyl-phenylglycine]

Relative Activity (phthalyl amidase [2]): 100
Km (phthalyl amidase [3]): 900 µM
Vmax (phthalyl amidase [3]): 7.6 μmol/sec/μmol
Relative Activity (phthalyl amidase [1]; 2 minutes): 100
hydrolyzed (phthalyl amidase [4]): 90.0%
SMILES: O=C(O)C1=C(Cl)CCC2C(NC(=O)c3ccccc3C(=O)O)C(=O)N12 (centres unmarked) [III, 7-phthalamido-3-chloro-4-carboxy-1-carba-dethioceph-3-em]

hydrolyzed (phthalyl amidase [4]): 98%
SMILES: O=C(O)C1=C(Cl)CCC2C(N3C(=O)c4ccccc4C3=O)C(=O)N12 (centres unmarked) [XXXIII, Phthalimido carbacephem]

SMILES: [Cl-].[K+] [KCl, reference compound]
protection of enzyme against activity loss [5]: protected against activity loss
% of Control Activity (phthalyl amidase [6]; 1 mM agent): 100%

substrate preference (phthalyl amidase [1]): poor substrates for the enzyme
Relative Activity (phthalyl amidase [1]; run for a longer time period): 0.0
SMILES: O=C(Nc1ccccc1)c1ccccc1S(=O)(=O)O [XXXII]

SMILES: [Cl-].[Na+] [NaCl, reference compound]
protection of enzyme against activity loss [5]: protected against activity loss
% of Control Activity (phthalyl amidase [6]): 104%
